The results in this text go back to ChEMBL document CHEMBL1142573, “Suaveolindole, a new mass-limited antibacterial indolosesquiterpene from Greenwayodendron suaveolens obtained via high-throughput natural products chemistry methods” (2005).

Values after ≈ are worked out from the molar mass of the structure shown.

Broadly, the MIC is the smallest concentration in the dilution series that meets the test's criterion for growth inhibition. Higher therefore signals weaker potency.

Assay type in all cases: functional
One experiment concerns Bacillus subtilis. The experiment can be described thus: Antimicrobial activity against Bacillus subtilis ATCC 43223.
In experiment [1] the test system is Staphylococcus aureus. The experiment can be described thus: Antimicrobial activity against Staphylococcus aureus ATTC 6538P.
Experiment [2] relates to Staphylococcus aureus. The experiment can be described thus: Antimicrobial activity against methicillin-resistant Staphylococcus aureus ATTC 33591.
Another experiment relates to Enterococcus faecalis. The experiment can be described thus: Antimicrobial activity against vancomycin-resistant Enterococcus faecalis VRE ATCC 51575.
The subject of another experiment is Klebsiella pneumoniae. The experiment can be described thus: Antimicrobial activity against Klebsiella pneumoniae ATCC 10031.
A further experiment relates to Pseudomonas aeruginosa. The experiment can be described thus: Antimicrobial activity against Pseudomonas aeruginosa ATCC 9027.

As to `CC(C)=C1CC[C@@H](C)[C@@](C)(Cc2c[nH]c3ccccc23)[C@@H]1CCC(=O)O` [SUAVEOLINDOLE], the MIC in the experiment on Bacillus subtilis was 4 µg/mL (≈ 11.3 µM); against Staphylococcus aureus [1], 8 µg/mL (≈ 22.6 µM); against Staphylococcus aureus [2] it was 8 µg/mL (≈ 22.6 µM); in the experiment with Enterococcus faecalis, over 32 µg/mL; against Klebsiella pneumoniae it was over 128 µg/mL; against Pseudomonas aeruginosa it was over 128 µg/mL.
